Assay results as given in US20180186968A1, “AGENT FOR SUPPRESSING ODORS OF POLYSULFIDE COMPOUNDS” (KAO CORPORATION, priority 2015, published 2018).

Legend:
olfactory receptor OR4S2 [1] = target: T1, olfactory receptor OR4S2 (Homo sapiens, UniProt Q8NH73); assay: Luciferase reporter gene assay: suppression of OR4S2 response to DMDS or DMTS by test substance (OR4S2 antagonist search); format: cell-based; settings: for response of OR4S2 to DMDS in the presence of test substance (Response %): DMDS 1 mM, test substance 0 to 3000 μM, FIG. 4; for response of OR4S2 to DMTS in the presence of test substance (Fold increase): DMTS 300 μM, test substance 100 μM, FIG. 5
T1 construct: Flag-Rho tag (N); expressed in transfected cells; host or cells: HEK293
T1 sequence (Q8NH73 1-311): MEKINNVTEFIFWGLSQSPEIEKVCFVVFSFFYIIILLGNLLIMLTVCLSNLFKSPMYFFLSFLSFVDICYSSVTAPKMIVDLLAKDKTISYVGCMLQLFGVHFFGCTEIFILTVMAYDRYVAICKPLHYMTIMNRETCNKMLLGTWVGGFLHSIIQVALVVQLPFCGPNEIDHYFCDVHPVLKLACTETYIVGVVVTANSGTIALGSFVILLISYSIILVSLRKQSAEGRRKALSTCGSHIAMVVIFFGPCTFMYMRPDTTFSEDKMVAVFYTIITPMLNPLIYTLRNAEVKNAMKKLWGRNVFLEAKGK
Description: By using the same procedure as in Example 1 (1) to (3), HEK293 cells expressing OR4S2 (SEQ ID NO: 1) were prepared. The response of the olfactory receptor to DMDS (the value fLuc/hRluc) was measured in the presence and absence of a test substance by using luciferase reporter gene assay in accordance with the procedure in Example 1 (4). The value fLuc/hRluc induced by a stimulus of single DMDS, (X), the value fLuc/hRluc for cells without a stimulus of DMDS, (Y), and the value fLuc/hRluc induced by a co-stimulus of DMDS and a test substance, (Z), were determined, and the intensity of the response (Response (%)) of the receptor to DMDS in the presence of a test substance was determined by using the following formula.
Response (%)=(Z−Y)/(X−Y)×100
The experiment s performed independently three times, and the average value of the experiments was determined. The concentration of DMDS to be added to a culture was set a 1 mM, and the concentration of a test substance to be added was changed in the range of 0 to 3000 μM.
For the response to DMTS, the value fLuc/hRluc to a stimulus of single DMTS, (X′), was divided by the value fLuc/hRluc for cells without a stimulus of DMTS, (Y), and the calculated value, (X′/Y), was calculated as a value of the response to DMTS Fold increase). To compare the effect of a test substance on the response to DMTS, the value fLuc/hRluc induced by a co-stimulus of DMTS and a test substance, (Z′), was similarly divided by the value fLuc/hRluc for cells without a stimulus, (Y), to calculate (Z′/Y) as Fold increase. The experiment was performed independently three times, and the average value of the experiments was determined. The concentration of DMTS to be added to a culture was set at 300 μM, and the concentration of a test substance to be added set at 100 μM.

[2] = Sensory test of odor-suppressing effect for polysulfide compounds; format: in vivo, human; settings: for odor intensity of DMTS (sensory evaluation): 0.01% (v/v) DMTS and 0.1% (v/v) test substance in mineral oil, 11 evaluators, FIG. 7; for odor intensity of DMDS (sensory evaluation): 0.1% (v/v) DMDS and 0.1% (v/v) test substance in mineral oil, 10 evaluators, FIG. 6
Description: The odor-suppressing effect of each of trimethylhexyl aldehyde (THA), cis-4-heptenal, and 1,4-cineol, as the OR4S2 antagonists identified in Example 2, for polysulfide compounds was checked in a sensory test.
For each of DMDS, THA, cis-4-heptenal, and 1,4-cineol, a 0.1% (v/v) solution in mineral oil was prepared. For DMTS, a 0.01% (v/v) solution in mineral oil was prepared. Two cotton balls were put in 20 mL glass bottle (Maruemu Corporation, No. 6), and one cottonball was impregnated with 30 μL of the DMDS or DMTS solution, and the other cotton ball was impregnated with 30 μL of a solution of one of the three OR4S2 antagonists. The glass bottle containing the cotton balls was covered with a lid, and left to stand at 37° C. for 1 hour, and thereafter used as a test sample for a sensory test. Glass bottles containing only cotton ball impregnated with the DMDS or DMTS solution were prepared as reference samples, and a glass bottle containing only cotton ball impregnated with mineral oil (Vehicle) was prepared as a control sample.
A sensory test was performed in a single-blinded mode with 10 evaluators for DMDS and 11evaluators for DMTS. The test was initiated after two o'clock pm, which was 1.5 hours or longer after a meal. To prevent diffusion of a smell, the test was performed essentially under a fume hood. To eliminate the influence of adaptation to odors of polysulfide compounds, the evaluators were appropriately checked for the intensity of recognition to the odor of DMDS or DMTS in the test, and rested as necessary. The evaluators were separated into two groups, and one group evaluated the odor-suppressing effect for DMDS or DMTS with respect to THA, cis-4-heptenal, and 1,4-cineol, in the presented, and the other group evaluated in with respect to 1,4-cineol, cis-4-heptenal, and THA, in the order presented. Each test sample was replaced with another one after evaluation by each of three evaluators.
In evaluation of odors of test samples, the following criteria in five grades were set for each evaluator; “odor of DMDS (or DMTS) was 1: unidentifiable, 2: perceivable, 3: easily identifiable, 4: strong, 5: intolerably strong”, and the evaluators rated the odor intensity of DMDS (or DMTS) for each test sample in nine grades from 1.0 to 5.0 at an interval of 0.5, where the odor intensity of single DMDS (or DMTS) was assumed as 3. The average value of the evaluation results by the evaluators was determined.

olfactory receptor OR4S2 [3] = target: T1, olfactory receptor OR4S2; assay: Luciferase reporter gene assay: response of olfactory receptor to sulfur compounds; format: cell-based; settings: for response of olfactory receptor OR4S2 to polysulfide compound (fold increase): 100 μM polysulfide compound, 428 olfactory receptors measured, HEK293 cells, FIG. 1; for response of OR4S2 at different concentrations: HEK293 cells expressing OR4S2, FIG. 2
From the text: A human olfactory receptor cloned using the PCR method with human genomic DNA (G1521:Promega Corporation) as a template on the basis of sequence information registered in GenBank. Each gene amplified through the PCR method was incorporated into a pENTR vector (Invitrogen) in accordance with the manual, and recombined, by utilizing the NotI and AscI sites present in the pENTR vector, with a pME18S vector at the NotI and AscI sites produced in the downstream of he Flag-Rho tag sequence of the pME18S vector. • (2) Preparation of pME18S-human RTP1S Vector
A vector expressing receptor-transporting protein (RTP), a protein which promotes the expression of an olfactory receptor polypeptide on the cell membrane, was prepared. Specifically, a gene encoding human RTP1S (GI: 50234917) was incorporated into a pME18S vector at the EcoRI and XhoI sites thereof. • (3) Preparation of Olfactory Receptor-expressing Cells
HEK293 cells expressing any one of human olfactory receptors were produced. A reaction solution with a composition shown in Table 2 was prepared and left to stand in a clean bench for 15 minutes, and then added to each well of a 96-well plate (BD Biosciences). Subsequently, 90 μL of HEK293 cells (3×10^5 cells/cm^2) was seeded in each well, and cultured in an incubator retained at 37° C. and 5% CO2 for 24 hours. As a control, cells with conditions for no expression of an olfactory receptor (Mock) were prepared and used in an experiment.
An olfactory receptor expressed on HEK293 cells increases the intracellular cAMP level through conjugation with the intracellular Gas followed by resulting activation of adenylate cyclase. For smell response measurement in this study, luciferase reporter gene assay was used in which increase of the intracellular cAMP level is monitored as an emission value derived from a firefly luciferase gene (fluc2P-CRE-hygro). Transgenesis was simultaneously performed by using a product with a sea pansy luciferase gene fused to the downstream of the CMV promoter (hRluc-CMV), and the resultant was used as an internal standard to correct errors of transgenesis efficiency and the number of cells.
The medium was removed from the culture prepared in the above(3), and 75 μL of a solution containing a polysulfide compound prepared with DMEM (NACALAI TESQUE, INC.) was added. The polysulfide compound was 100 μM of dimethyl disulfide (DMDS) or dimethyl trisulfide (DMTS). The cells were cultured in a CO2 incubator for 3 hours to allow the luciferase gene to be sufficiently expressed in the cells. Measurement of the activity of luciferase was performed by using a Dual-Glo (TM) luciferase assay system (Promega Corporation) in accordance with an operation manual of the product. For each stimulus condition, the value fLuc/hRluc was calculated by dividing the emission value derived from sea pansy luciferase. The value fLuc/hRluc derived from firefly luciferase and induced by a stimulus of a polysulfide compound was divided by the value fLuc/hRluc for cells without a stimulus of a polysulfide compound to calculate a fold increase, and the fold increase was used as an indicator of intensity of response. • (5) Results

| Molecule | response of OR4S2 to DMDS in the presence of test substance (Response %) (olfactory receptor OR4S2 [1]) | response of OR4S2 to DMTS in the presence of test substance (Fold increase) (olfactory receptor OR4S2 [1]) | odor intensity of DMTS (sensory evaluation) [2] | odor intensity of DMDS (sensory evaluation) [2] | other results |
| --- | --- | --- | --- | --- | --- |
| CC(C)C12CCC(C)(CC1)O2 [1,4-cineol, 1,4-Cineole] | suppressed the response of OR4S2 to DMDS in a concentration-dependent manner | suppressed the response of OR4S2 to DMTS | suppressed the odor intensity | suppressed the odor intensity |  |
| CSSC [DMDS, Dimethyl disulfide] |  |  |  |  | response of olfactory receptor OR4S2 to polysulfide compound (fold increase) (olfactory receptor OR4S2 [3]): exhibits a specific response; response of OR4S2 at different concentrations (olfactory receptor OR4S2 [3]): concentration-dependent manner |
| CSSSC [DMTS, Dimethyl trisulfide] |  |  |  |  | response of olfactory receptor OR4S2 to polysulfide compound (fold increase) (olfactory receptor OR4S2 [3]): exhibits a specific response; response of OR4S2 at different concentrations (olfactory receptor OR4S2 [3]): concentration-dependent manner |
| CC(CC=O)CC(C)(C)C (stereo not drawn) [Trimethylhexyl aldehyde, 3,5,5-Trimethylhexanal] | suppressed the response of OR4S2 to DMDS in a concentration-dependent manner | suppressed the response of OR4S2 to DMTS | suppressed the odor intensity | suppressed the odor intensity |  |
| CCCCOC(=O)C(C)CC (stereo not drawn) [butyl 2-methylbutanoate, Butyl 2-methylbutanoate] | suppressed the response of OR4S2 to DMDS in a concentration-dependent manner | suppressed the response of OR4S2 to DMTS |  |  |  |
| CC/C=C\CCC=O [cis-4-heptenal, (Z)-Hept-4-enal] | suppressed the response of OR4S2 to DMDS in a concentration-dependent manner | suppressed the response of OR4S2 to DMTS | suppressed the odor intensity | suppressed the odor intensity |  |
| C=C(C)[C@H]1CC=C(C)CC1 [dipentene, Dipentene] | suppressed the response of OR4S2 to DMDS in a concentration-dependent manner |  |  |  |  |
| CS [methylmercaptan, Methylmercaptan] |  |  |  |  | response of OR4S2 to methylmercaptan (olfactory receptor OR4S2 [3]; 3 mm test substance, FIG. 3): did not respond |
| CC1=CC=C(C(C)C)CC1 [α-terpinene, p-Mentha-1,3-diene] | suppressed the response of OR4S2 to DMDS in a concentration-dependent manner | suppressed the response of OR4S2 to DMTS |  |  |  |
| (+)-Limonene oxide | suppressed the response of OR4S2 to DMDS in a concentration-dependent manner | suppressed the response of OR4S2 to DMTS |  |  |  |
